Experimental findings from article PMC7366380, “Discovery of a Potent and Selective Covalent Inhibitor and Activity-Based Probe for the Deubiquitylating Enzyme UCHL1, with Antifibrotic Activity” (Journal of the American Chemical Society, 2020) are described below.

In one test the test system is 20 DUBs. The test can be described thus: Biochemical DUB selectivity profiling (FP and FI assays), whole panel.
Test [1] concerns the target T1, UCHL1 (Homo sapiens, UniProt P09936).
T1 sequence (P09936 1-223): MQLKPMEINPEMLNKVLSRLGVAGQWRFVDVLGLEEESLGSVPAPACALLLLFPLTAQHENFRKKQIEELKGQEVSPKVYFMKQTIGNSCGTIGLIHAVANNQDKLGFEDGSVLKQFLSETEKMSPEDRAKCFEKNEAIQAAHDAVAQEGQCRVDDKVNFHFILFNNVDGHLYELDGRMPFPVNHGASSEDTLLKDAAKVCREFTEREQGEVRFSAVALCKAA
The test can be described thus: Competitive ABPP against ABP 2 in HEK293 cells, in-gel fluorescence and pulldown/UCHL1 immunoblot. Format: cell-based. Set-up: rapidly targets endogenous UCHL1 in cells; endogenous in cells; host or cells: HEK293. To be noted: HEK293, compound 1 h, then 2 (20 nM) 10 min. A general note: In western blotting, separated proteins are transferred to a membrane and probed.

The target of test [2] is T1, UCHL1. The following applies: HEK293T, 1 h treatment, immunoblot.
Another test deals with USP16 (Homo sapiens, UniProt Q9Y5T5). The test is described as follows: biochemical.
A further test deals with T2, Cezanne1 (Homo sapiens, UniProt Q6GQQ9).
T2 sequence (Q6GQQ9 1-843): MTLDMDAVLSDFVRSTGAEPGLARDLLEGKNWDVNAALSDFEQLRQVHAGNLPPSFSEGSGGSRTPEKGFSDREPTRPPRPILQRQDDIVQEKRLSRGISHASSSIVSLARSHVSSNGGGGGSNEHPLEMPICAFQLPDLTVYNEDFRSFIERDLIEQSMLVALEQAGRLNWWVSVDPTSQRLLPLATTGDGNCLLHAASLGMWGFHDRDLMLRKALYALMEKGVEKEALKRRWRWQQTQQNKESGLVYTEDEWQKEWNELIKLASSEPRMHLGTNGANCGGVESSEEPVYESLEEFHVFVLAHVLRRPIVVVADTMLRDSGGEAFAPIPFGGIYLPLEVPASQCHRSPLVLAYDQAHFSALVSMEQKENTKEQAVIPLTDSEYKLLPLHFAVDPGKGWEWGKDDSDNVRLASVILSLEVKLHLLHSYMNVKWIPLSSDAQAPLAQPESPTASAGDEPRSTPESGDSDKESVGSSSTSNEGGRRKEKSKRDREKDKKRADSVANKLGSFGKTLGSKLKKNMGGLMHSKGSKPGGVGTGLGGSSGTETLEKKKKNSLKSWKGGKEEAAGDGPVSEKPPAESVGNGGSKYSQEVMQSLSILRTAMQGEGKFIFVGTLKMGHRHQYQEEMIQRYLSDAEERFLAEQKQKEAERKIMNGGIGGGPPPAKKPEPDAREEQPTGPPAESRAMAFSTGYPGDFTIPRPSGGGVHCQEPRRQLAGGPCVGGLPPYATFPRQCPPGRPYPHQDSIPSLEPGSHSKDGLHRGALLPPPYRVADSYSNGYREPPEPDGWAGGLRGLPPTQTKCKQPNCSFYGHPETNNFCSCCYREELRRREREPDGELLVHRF
The test can be described thus: Biochemical DUB selectivity profiling assay: Cezanne1. To be noted: Ub-Lys-TAMRA 50 nM, buffer B; read-out: Biochemical IC50 range, Cezanne1. As for the experimental part:
DUB Assay Substrate Substrate
Buffer Concentration (nM) […]
Sepharose® 4B resin (GE Healthcare).
10 kDa molecular weight cut-off (MWCO)).
Fractions containing protein
Protein concentration was […]
reaction volume of 21 μL. […]
compound (final concentration 5 nM).
IC50 values were determined
Biochemical DUB selectivity profiling assays […]
in 40 µL total reaction volume.

Sequence of USP16 (Q9Y5T5 whole entry, species assumed): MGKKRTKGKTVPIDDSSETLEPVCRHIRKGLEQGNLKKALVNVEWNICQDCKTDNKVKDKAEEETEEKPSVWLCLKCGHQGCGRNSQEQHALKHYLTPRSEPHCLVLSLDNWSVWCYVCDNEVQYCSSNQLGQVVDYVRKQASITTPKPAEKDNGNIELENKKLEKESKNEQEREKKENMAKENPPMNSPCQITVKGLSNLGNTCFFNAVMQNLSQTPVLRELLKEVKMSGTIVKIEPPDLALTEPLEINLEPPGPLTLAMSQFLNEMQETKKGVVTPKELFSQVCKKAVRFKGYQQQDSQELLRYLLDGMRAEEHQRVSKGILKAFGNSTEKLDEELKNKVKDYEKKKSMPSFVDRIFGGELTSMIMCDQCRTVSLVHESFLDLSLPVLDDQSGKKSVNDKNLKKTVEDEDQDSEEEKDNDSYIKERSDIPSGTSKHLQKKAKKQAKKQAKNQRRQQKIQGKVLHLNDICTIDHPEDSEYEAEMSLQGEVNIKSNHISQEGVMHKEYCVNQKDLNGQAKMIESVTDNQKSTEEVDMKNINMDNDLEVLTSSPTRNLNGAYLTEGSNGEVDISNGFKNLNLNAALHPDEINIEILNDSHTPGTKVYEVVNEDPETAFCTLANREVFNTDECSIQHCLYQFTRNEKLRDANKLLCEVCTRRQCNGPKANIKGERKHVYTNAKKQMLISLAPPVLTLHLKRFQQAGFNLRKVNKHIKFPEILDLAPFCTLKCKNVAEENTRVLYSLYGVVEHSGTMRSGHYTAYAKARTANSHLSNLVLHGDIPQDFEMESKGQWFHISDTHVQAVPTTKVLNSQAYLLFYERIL

Usually IC50 stands for the concentration that inhibits the measured activity by half. For the molecule `N#CN1CCC[C@H]1C(=O)N1CCc2c(-c3c[nH]c4ncccc34)cccc21` [Compound 1], the “activity/selectivity in cross-screening against 20 DUBs” value with 20 DUBs was “exquisite selectivity”. In addition, the “competition for UCHL1 labeling by ABP 2 (immunoblot)” value at UCHL1 [1] is listed as “dose-dependent UCHL1 labeling reduction”. For the same molecule, at UCHL1 [2], the “in-cell competition for HA-Ub-VME labeling of UCHL1” value is “concentration-dependent competition”. Further, the IC50 against USP16 and at Cezanne1 was greater than 10 µM in each case.

Take `C#Cc1cnc2[nH]cc(-c3cccc4c3CCN4C(=O)[C@@H]3CCCN3C#N)c2c1` [Compound 2]: the “in-cell competition for HA-Ub-VME labeling of UCHL1” value at UCHL1 [2] is “concentration-dependent competition”. For the same molecule, on Cezanne1, the IC50 is greater than 10 µM.

Consider `N#CN1CCC[C@@H]1C(=O)N1CCc2c(-c3c[nH]c4ncccc34)cccc21` [Compound 3], for which the “activity/selectivity in cross-screening against 20 DUBs” value with 20 DUBs is “inactive”. Also, the “competition for UCHL1 labeling by ABP 2 (immunoblot)” value at UCHL1 [1] is recorded as “no competition”. In addition, the IC50 on Cezanne1 is greater than 10 µM.

For `CC(=O)O/N=C1\C(=O)N(Cc2cc(Cl)ccc2Cl)c2ccc(Cl)cc21` [LDN-57444, reference compound], the IC50 on USP16 and at Cezanne1 was greater than 10 µM each time.
